In paper PMC12302426, “Dihydrokoumine, a dual-target analgesic with reduced side effects isolated from a traditional Chinese medicine” (Journal of Advanced Research, 2024):

Assays:
histamine receptor H1 = target: T1, histamine receptor H1 (Homo sapiens, UniProt P35367); experiment: DMR desensitization assay, A431, probe histamine; format: cell-based; details: 100 μM DK
T1 construct: endogenous in cells; host or cells: A431
Protocol: (§1) DMR assays were performed using an Epic® BT system (Corning, NY, USA). All used cell lines were directly seeded in Epic 384-well biosensor microplates with a seeding density of 25,000 cells per well. After being cultured for about 22 h, the cells formed a monolayer with a confluency of about 95 % in the cell culture medium. Then the cells were manually washed using assay buffer (1 × HBSS buffer, 10 mM HEPES, pH = 7.4) and maintained in 30 μL of the assay buffer for 1 h. All samples were dissolved in DMSO and diluted freshly with the assay buffer containing 0.1 % BSA.
(§2) The receptor selectivity was evaluated against a set of G protein-coupled receptors (GPCRs), including opioid receptor (Delta/Kappa/NOP), dopamine receptor (D1/D2), orphan receptor (GPR35), adrenergic receptor (α2A/β2), serotonin receptor (5HT2A), histamine receptor (H1) and cannabinoid receptor (CB1). Following a 1-hour pretreatment with DK, a 2-min baseline was established before introducing probes and monitoring DMR signals for another hour. The cells and probes were as follows: Delta, HEK293-Delta, SNC162; Kappa, HEK293-Kappa, ICI199441; NOP, HEK293-NOP, MCOPPB; D1, HEK293-D1, dopamine; D2, HEK293-D2, dopamine; GPR35, CHO-K1-hGPR35, zaprinast; 5HT2A, HEK293-5HT2A, 5-hydroxytryptamine; α2A, HEK293-α2A, L-Noradrenaline; β2, A431, isoprenaline; H1, A431, histamine; CB1, CHO-K1-CB1, CP 55940. […]

HUVEC cells = experiment: Cytotoxicity assay (CCK-8), HUVEC; format: cell-based; details: 24 h
Protocol: HEK293T, CHO, and HUVEC cell lines were cultured overnight in 96-well plates before exposure to compounds for 24 h. Cell viability was evaluated using the Cell Counting Kit-8 (CCK-8, Beyotime Biotechnology, China), and absorbance at 450 nm was measured with a microplate reader. Cell survival rates were calculated relative to control conditions.

C57BL/6 male mice = experiment: Hot-plate assay (acute pain); format: in vivo
Protocol: The hot-plate test in mice was conducted following previously established method. Six-week-old C57BL/6 male mice were used in hot-plate assay (n = 6). Hot-plate response latency (55°C) after drug treatment was used to measure antinociceptive effect, where response was defined by the animal either by licking paws, flicking paws or jumping. Mice were exposed to the hot plate (Ugo Basile model 7280, Comerio, Italy) for a maximum of 20 s to avoid tissue damage. After three days’ baseline measure, mice were injected intraperitoneally (5 mL/kg) with the solvent mixture, morphine (5 mg/kg) or DK (20, 40 mg/kg) and latency was tested 0.5-, 1-, 2-, 3- and 4- hours post-administration. Evaluation of MOR agonistic and M3R antagonistic activity of DK, naloxone (2 mg/kg) and oxotremorine (0.4 mg/kg) were first injected intraperitoneally, immediately followed by the injection of morphine (5 mg/kg, evaluation of MOR) or DK (20 mg/kg).

orphan receptor GPR35 = target: T2, orphan receptor GPR35 (Homo sapiens, UniProt Q9HC97); experiment: DMR desensitization assay, CHO-K1-hGPR35, probe zaprinast; format: cell-based; details: 100 μM DK
T2 construct: expressed in transfected cells; host or cells: CHO-K1-hGPR35
T2 sequence (Q9HC97 whole entry): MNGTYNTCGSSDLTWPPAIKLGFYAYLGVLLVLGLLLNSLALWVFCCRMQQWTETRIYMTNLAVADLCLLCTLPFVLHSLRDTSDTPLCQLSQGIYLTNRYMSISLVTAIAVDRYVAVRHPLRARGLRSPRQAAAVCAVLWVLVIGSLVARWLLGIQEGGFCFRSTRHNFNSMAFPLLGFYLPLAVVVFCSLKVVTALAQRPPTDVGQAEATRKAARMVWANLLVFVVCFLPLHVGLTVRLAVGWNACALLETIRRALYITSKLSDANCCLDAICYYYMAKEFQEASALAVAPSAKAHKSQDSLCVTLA
Protocol: as §1, §2

M3R [1] = target: T3, M3R (Homo sapiens, UniProt P20309); experiment: FLIPR Ca2+ antagonist assay in HEK293-M3 cells (carbachol-induced); format: cell-based
T3 construct: expressed in transfected cells; host or cells: HEK293 cell membranes
T3 sequence (P20309 whole entry): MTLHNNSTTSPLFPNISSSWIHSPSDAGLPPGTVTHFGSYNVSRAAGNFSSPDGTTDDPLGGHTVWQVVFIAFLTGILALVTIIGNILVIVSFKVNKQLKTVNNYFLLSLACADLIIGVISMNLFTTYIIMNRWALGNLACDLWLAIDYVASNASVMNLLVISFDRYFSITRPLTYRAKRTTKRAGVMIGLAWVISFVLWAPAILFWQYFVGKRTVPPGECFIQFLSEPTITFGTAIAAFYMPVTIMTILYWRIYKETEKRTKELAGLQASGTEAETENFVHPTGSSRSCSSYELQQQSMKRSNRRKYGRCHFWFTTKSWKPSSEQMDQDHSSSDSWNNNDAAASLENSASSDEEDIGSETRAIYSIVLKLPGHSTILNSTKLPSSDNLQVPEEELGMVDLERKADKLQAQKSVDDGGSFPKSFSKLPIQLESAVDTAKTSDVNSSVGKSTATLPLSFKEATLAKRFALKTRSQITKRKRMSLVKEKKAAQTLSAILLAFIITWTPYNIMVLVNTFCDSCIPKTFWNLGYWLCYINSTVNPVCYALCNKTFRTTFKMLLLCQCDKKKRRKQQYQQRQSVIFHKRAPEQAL
Protocol: FLIPR assay was carried out as reported earlier. Cell lines were seeded in 96-well plates with black walls (Greiner, USA) at 8.0 × 10^4 cells per well. After approximately 22 h of incubation, the cells were exposed to Calcium-6 dye (Molecular Devices, USA) in HBSS buffer supplemented with 20 mM HEPES (pH 7.4) at 37°C for one hour. Samples, redissolved in DMSO and housed in 96-well drug plates, underwent dilution with FLIPR buffer and subsequent automated introduction to the cells. […] In FLIPR antagonist experiments, cells were pre-incubated with the compound for 10 min prior to introducing a specified concentration of agonist. Results were presented as fluorescence (arbitrary units) plotted against time.

M3R [2] = target: T3, M3R; experiment: Radioligand binding assay, [3H] NMS; details: [3H] NMS 0.2 nM
Protocol: Radioligand binding assays were conducted using MicroBeta2 (PerkinElmer, USA). Membrane protein preparations MOR and M3R were each prepared at a concentration of 2.5 µg/well. The radio ligands [^3H] DAMGO (specific for MOR) and [^3H]-NMS (specific for M3R) were prepared at concentrations of 0.5 nM and 0.2 nM, respectively. […] For each well, 1 µL of the serially diluted test compounds was transferred, followed by the addition of 100 µL of membrane stock solution and 100 µL of radioligand. The plates were sealed and shaken at 300 rpm at room temperature for one hour. Upon completion of the binding assay, the contents of each well were filtered through Unifilter-96 GF/C filter plates (PerkinElmer, USA). The filter plates were dried for one hour at 50°C and sealed. The trapped ^3H (tritium) on the filters was then quantified using the MicroBeta2. The percentage of inhibition or binding was subsequently calculated.

adrenergic receptor β2 = target: T4, adrenergic receptor β2 (Homo sapiens, UniProt P07550); experiment: DMR desensitization assay, A431, probe isoprenaline; format: cell-based; details: 100 μM DK
T4 construct: endogenous in cells; host or cells: A431
T4 sequence (P07550 whole entry): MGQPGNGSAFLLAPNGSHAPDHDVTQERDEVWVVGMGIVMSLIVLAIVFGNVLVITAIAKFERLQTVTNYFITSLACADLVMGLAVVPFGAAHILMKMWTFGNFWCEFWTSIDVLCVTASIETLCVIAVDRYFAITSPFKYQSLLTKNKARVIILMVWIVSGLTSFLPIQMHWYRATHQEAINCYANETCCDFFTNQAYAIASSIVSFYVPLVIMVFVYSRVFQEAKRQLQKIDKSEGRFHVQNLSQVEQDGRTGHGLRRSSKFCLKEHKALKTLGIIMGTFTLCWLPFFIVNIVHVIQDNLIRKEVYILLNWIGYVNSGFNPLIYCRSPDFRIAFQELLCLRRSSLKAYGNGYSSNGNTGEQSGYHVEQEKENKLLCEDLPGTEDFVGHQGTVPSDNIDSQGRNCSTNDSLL
Protocol: as §1, §2

[3] = target: T5, serotonin receptor 5-HT2A (Homo sapiens, UniProt P28223); experiment: DMR desensitization assay, HEK293-5HT2A, probe 5-hydroxytryptamine; format: cell-based; details: 100 μM DK
T5 construct: expressed in transfected cells; host or cells: HEK293-5HT2A
T5 sequence (P28223 whole entry): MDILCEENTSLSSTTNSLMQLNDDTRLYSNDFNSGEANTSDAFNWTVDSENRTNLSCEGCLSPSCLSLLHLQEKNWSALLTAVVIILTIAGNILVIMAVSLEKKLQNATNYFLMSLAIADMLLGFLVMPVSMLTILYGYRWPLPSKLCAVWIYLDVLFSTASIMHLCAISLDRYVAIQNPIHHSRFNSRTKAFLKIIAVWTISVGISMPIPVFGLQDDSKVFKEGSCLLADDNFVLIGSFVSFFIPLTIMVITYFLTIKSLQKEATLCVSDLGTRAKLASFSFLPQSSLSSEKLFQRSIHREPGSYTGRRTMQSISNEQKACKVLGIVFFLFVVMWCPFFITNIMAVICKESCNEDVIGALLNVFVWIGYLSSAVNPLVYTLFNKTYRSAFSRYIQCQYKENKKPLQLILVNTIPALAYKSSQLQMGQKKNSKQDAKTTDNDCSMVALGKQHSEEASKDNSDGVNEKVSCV
Protocol: as §1, §2

mu opioid receptor (MOR) = target: T6, mu opioid receptor (MOR) (Homo sapiens, UniProt P35372); experiment: DMR assay in HEK293T-Mu cells (agonist, desensitization, antagonist); format: cell-based
T6 construct: expressed in transfected cells; host or cells: HEK293T-Mu
T6 sequence (P35372 whole entry): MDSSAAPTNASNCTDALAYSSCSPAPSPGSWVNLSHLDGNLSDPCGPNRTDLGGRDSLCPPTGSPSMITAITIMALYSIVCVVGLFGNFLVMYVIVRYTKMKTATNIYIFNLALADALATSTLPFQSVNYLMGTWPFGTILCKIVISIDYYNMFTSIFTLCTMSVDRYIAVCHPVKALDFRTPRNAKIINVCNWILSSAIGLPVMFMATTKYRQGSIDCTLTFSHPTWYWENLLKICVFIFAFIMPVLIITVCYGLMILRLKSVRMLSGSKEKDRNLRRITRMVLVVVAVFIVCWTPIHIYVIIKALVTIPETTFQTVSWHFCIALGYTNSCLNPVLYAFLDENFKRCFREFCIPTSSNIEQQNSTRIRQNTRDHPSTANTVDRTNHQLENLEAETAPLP
Protocol: as §1
The DMR assays were conducted as follows. […] In the case of the DMR desensitization assay, cells were pretreated with analytes for one hour before introducing a specific agonist at the indicated concentration, and the agonist-induced DMR signals were monitored for one hour. Finally, for the DMR antagonist assay, cells underwent a 1-hour pretreatment with an antagonist before the addition of a specific agonist at the indicated concentration, and subsequent DMR signals were recorded over one hour.

cannabinoid receptor CB1 = target: T7, cannabinoid receptor CB1 (Homo sapiens, UniProt P21554); experiment: DMR desensitization assay, CHO-K1-CB1, probe CP 55940; format: cell-based; details: 100 μM DK
T7 construct: expressed in transfected cells; host or cells: CHO-K1-CB1
T7 sequence (P21554 whole entry): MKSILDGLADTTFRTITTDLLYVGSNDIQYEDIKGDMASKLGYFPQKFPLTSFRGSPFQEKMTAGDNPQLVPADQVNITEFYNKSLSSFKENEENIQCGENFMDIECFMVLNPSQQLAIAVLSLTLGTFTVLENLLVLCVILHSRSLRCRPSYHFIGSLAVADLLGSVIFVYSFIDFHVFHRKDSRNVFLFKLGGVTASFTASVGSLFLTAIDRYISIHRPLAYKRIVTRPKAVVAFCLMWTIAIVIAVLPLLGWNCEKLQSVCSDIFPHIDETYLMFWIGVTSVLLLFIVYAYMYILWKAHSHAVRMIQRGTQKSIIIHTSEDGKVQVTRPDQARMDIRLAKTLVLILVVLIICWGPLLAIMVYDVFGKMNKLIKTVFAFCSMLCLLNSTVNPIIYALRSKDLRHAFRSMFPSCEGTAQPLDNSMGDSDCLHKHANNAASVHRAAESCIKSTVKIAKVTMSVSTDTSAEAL
Protocol: as §1, §2

T1 sequence (P35367 whole entry): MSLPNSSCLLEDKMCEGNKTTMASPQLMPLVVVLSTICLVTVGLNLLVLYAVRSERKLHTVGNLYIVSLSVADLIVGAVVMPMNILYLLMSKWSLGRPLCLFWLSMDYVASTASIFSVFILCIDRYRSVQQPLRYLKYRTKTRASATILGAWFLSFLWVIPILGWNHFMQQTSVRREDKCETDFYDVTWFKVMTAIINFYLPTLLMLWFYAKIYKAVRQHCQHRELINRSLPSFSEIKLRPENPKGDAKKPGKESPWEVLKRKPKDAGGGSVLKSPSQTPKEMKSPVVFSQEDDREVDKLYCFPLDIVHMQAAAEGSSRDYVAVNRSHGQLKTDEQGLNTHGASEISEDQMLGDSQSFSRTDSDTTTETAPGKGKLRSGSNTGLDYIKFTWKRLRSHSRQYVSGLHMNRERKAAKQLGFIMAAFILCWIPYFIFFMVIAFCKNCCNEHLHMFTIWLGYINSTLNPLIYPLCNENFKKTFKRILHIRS

With C=CC12CN(C)C3CC14c1ccccc1NC4C1CC2C3CO1 (stereo not drawn) [DK] the “reduction of probe DMR response (desensitization)” value (from here on “reduction of probe DMR response”) (histamine receptor H1) was “almost unable to reduce the response”, the “cytotoxicity (cell viability)” value (HUVEC cells) was “noncytotoxic” and the “effect of naloxone on pain threshold in hot plate assay” value (C57BL/6 male mice; DK 20 mg/kg, naloxone 2 mg/kg) was “naloxone failed to decrease the pain threshold of DK”. The “effect of oxotremorine on antinociception in hot plate assay” value (C57BL/6 male mice; DK 20 mg/kg, oxotremorine 0.4 mg/kg) was “oxotremorine markedly diminished the antinociceptive efficacy of DK”, the duration of antinociception (C57BL/6 male mice; DK 20, 40 mg/kg i.p.) was “at least 3 h” and the “antinociception (hot-plate response latency)” value (C57BL/6 male mice; DK 20, 40 mg/kg i.p., 55°C) was “potent antinociception in a dose-dependent manner”. The “reduction of probe DMR response” value (orphan receptor GPR35) was “almost unable to reduce the response”, the IC50 (M3R [1]; FLIPR, 5 nM carbachol (Fig. 2D), read-out: IC50 for inhibition of carbachol-induced Ca2+ response) was 11.6 ± 4.31 µM and the “concentration-dependent inhibition of carbachol-induced Ca2+ response at M3R compared with purified DK” value (M3R [1]; semisynthesized material) was “its activity was close to that of purified DK”. For the same compound, the Ki (M3R [2]) was 55.2 ± 11 µM, the “efficacy (maximal inhibition of radioligand binding)” value (M3R [2]) was 74.6% and the “reduction of probe DMR response” value (adrenergic receptor β2) was “almost unable to reduce the response”. The “reduction of probe DMR response” value [3] was “almost unable to reduce the response”, the “maximum DMR response compared with endomorphin-1” value (mu opioid receptor (MOR)) was “half of the maximum DMR response of endomorphin-1” and the “DMR response after naloxone pretreatment” value (mu opioid receptor (MOR); 100 μM DK, naloxone pretreatment one hour) was “could be antagonized by naloxone”. The EC50 (mu opioid receptor (MOR); DMR agonist assay, read-out: EC50 of DMR response) was 16.3 ± 1.05 µM, the “concentration-dependent DMR response at MOR compared with purified DK” value (mu opioid receptor (MOR); semisynthesized material) was “its activity was close to that of purified DK” and the “reduction of probe DMR response” value (cannabinoid receptor CB1) was “almost unable to reduce the response”.
